Test results from publication PMC4136963, “Structure-Based Design and Synthesis of Antiparasitic Pyrrolopyrimidines Targeting Pteridine Reductase 1” (Journal of Medicinal Chemistry, 2014).
Where a name gives a salt, the structure may show the parent alone. Read-outs that look alike come from different tables or passages of the source.

Experiments:
[1] = test system: T. b. brucei; assay: microbe, parasite or virus in culture; type: cell-based, T. b. brucei (strain Lister 427)
Method: Cells were routinely diluted when reaching the mid-log-phase concentration of 2 × 10^6 cells/mL and maintained in culture for no more than 30 passages.
Compounds’ potency against trypanosomes was assessed by Alamar blue assay.[31] Cells were seeded at a final concentration of 2 × 10^4 cells/mL into serial dilutions of the test compound. After 48 h incubation at 37 °C and 5% CO2, 20 μL of resazurin dye (Sigma-Aldrich) solution at 0.49 mM was added, and cells were incubated for a further 24 h. The reduction of resazurin was measured with a fluorimeter (FLUOstar Optima, BMG Labtech) using 544 nm excitation and 590 nm emission wavelengths. Output was plotted using the IC50 determination algorithm of the GraphPad Prism 5.0 software. All experiments were carried out in duplicate and repeated on at least three independent occasions.

[2] = test system: HEK 293T cells; assay: cells; type: cell-based, human; conditions: read-out: HEK (IC50 μM)
[3] = Clearance (Cli); type: in vitro ADME; conditions: footnote: Cli is the clearance in vivo
[4] = Plasma binding (fraction unbound); type: in vitro ADME; conditions: mouse; fraction unbound by plasma; read-out: plasma bind fu
[5] = Metabolic stability in microsomal assay (t1/2); type: in vitro ADME; conditions: microsomes
[6] = test system: T. b. brucei strain 427; conditions: infected mice, 30 mg/kg i.p. once daily up to 4 days; one surviving mouse per group; from ∼10^8
Method: Twenty-four hours postinfection mice were injected intraperitoneally with 30 mg/kg daily of test compound (repeated for four consecutive days), prepared in a 10% v/v DMSO, 40% v/v PEG, and 50% v/v water solution. Parasitaemia was monitored daily by tail venipuncture. Infected, untreated mice were used as control.

[7] = Trypanosoma brucei, read-out: T. b. brucei (IC50 μM), medium not stated
[8] = Trypanosoma brucei, read-out: T. b. brucei (IC50 μM) CMM, Creek's minimal medium (CMM)
[9] = Trypanosoma brucei, read-out: T. b. brucei (IC50 μM) HMI-9, HMI-9 medium
[10] = read-out: T. b. brucei (IC50 μM) CMM, Creek's minimal medium (CMM)
[11] = half-life of the compound, read-out: t1/2
[12] = read-out: T. b. brucei (IC50 μM) HMI-9, HMI-9 medium

## N#Cc1c(-c2cccc(C=O)c2)[nH]c2nc(N)nc(N)c12 [6a]
[1]; [7]
  IC50: 6.03 µM

## Nc1nc(N2CCSCC2)c2cc[nH]c2n1 [8b]
[1]; [7]
  IC50: 80.1 µM

## N#Cc1c[nH]c2nc(N)nc(N3CCSCC3)c12 [12d]
[1]; [7]
  IC50: 14.3 µM

## Cc1ccc(C(C[N+](=O)[O-])c2c(N)nc(N)[nH]c2=O)cc1 (stereo not shown) [26a]
[1]; [7]
  IC50: 2.04 µM
[2]; Homo sapiens, HEK-293T
  IC50: 73.4 µM

## Nc1nc(N)c(C(C[N+](=O)[O-])c2ccc(F)cc2)c(=O)[nH]1 (stereo not shown) [26b]
[1]; [7]
  IC50: 1.86 µM
[2]; Homo sapiens, HEK-293T
  IC50: 150 µM

## Nc1nc(N)c(C(C[N+](=O)[O-])c2ccccc2)c(=O)[nH]1 (stereo not shown) [26c, 2,6-diamino-5-(2-nitro-1-phenylethyl)-4(3H)-pyrimidinone]
[1]; [7]
  IC50: 1.02 µM
[2]; Homo sapiens, HEK-293T
  IC50: 134 µM

## Nc1nc2[nH]cc(CCc3ccccc3)c2c(=O)[nH]1 [27d]
[1]; [7]
  IC50: 7620 µM

## Cc1ccc(C(C[N+](=O)[O-])c2c(N)nc(N)nc2N)cc1 (stereo not shown) [28a]
[1]; [7]
  IC50: 0.47 µM
[2]; Homo sapiens, HEK-293T
  IC50: 32.5 µM

## Nc1nc(N)c(C(C[N+](=O)[O-])c2ccc(F)cc2)c(N)n1 (stereo not shown) [28b]
[1]; [7]
  IC50: 0.16 µM
[2]; Homo sapiens, HEK-293T
  IC50: 39.1 µM

## Nc1nc(N)c(C(C[N+](=O)[O-])c2ccccc2)c(N)n1 (stereo not shown) [28c, 5-(2-Nitro-1-phenylethyl)-2,4,6-pyrimidinetriamine]
[1]; [7]
  IC50: 0.13 µM
[2]; Homo sapiens, HEK-293T
  IC50: 35 µM

## Nc1nc(N)c(C(CCc2ccccc2)C[N+](=O)[O-])c(N)n1 (stereo not shown) [28d]
[1]; [7]
  IC50: 8.82 µM

## Nc1nc(N)c2c(-c3ccc(F)cc3)c[nH]c2n1 [29b]
[3]
  Cli: 1.7 mL/min/g

## CC(C)COc1nc(N)nc(N)c1C(C[N+](=O)[O-])c1ccc(F)cc1 (stereo not shown) [30a]
[1]; [8]
  IC50: 10.6 µM
[1]; [9]
  IC50: 13.9 µM

## Nc1nc(N)c(C(C[N+](=O)[O-])c2ccc(F)cc2)c(NC2CCCCC2)n1 (stereo not shown) [30b]
[1]; [8]
  IC50: 0.8 µM
[1]; [9]
  IC50: 0.54 µM
[2]; Homo sapiens, HEK-293T
  IC50: 32.6 µM

## CC(C)Oc1nc(N)nc(N)c1C(C[N+](=O)[O-])c1ccc(F)cc1 (stereo not shown) [30c, 5-[1-(4-Fluorophenyl)-2-nitroethyl]-6-isopropyloxy-2,4-pyrimidinediamine]
[1]; [8]
  IC50: 8.48 µM
[1]; [9]
  IC50: 15.9 µM

## Nc1nc2[nH]c(-c3ccccc3)c(-c3ccccc3)c2c(=O)[nH]1 [34a, 2-Amino-5,6-diphenyl-3,7-dihydro-4H-pyrrolo[2,3-d]pyrimidin-4-one]
[1]; [8]
  IC50: 0.41 µM
[1]; [9]
  IC50: 0.64 µM
[1]; [10]
  IC50: 0.407 µM
[4]
  fraction unbound: 0.029
[5]; [11]
  half-life: ~2.17 h

## Nc1nc2[nH]c(-c3ccc(F)cc3)c(-c3ccccc3)c2c(=O)[nH]1 [34c, 2-Amino-6-(4-fluorophenyl)-5-phenyl-3,7-dihydro-4H-pyrrolo[2,3-d]pyrimidin-4-one]
[1]; [8]
  IC50: 0.61 µM
[1]; [9]
  IC50: 0.74 µM
[1]; [10]
  IC50: 0.614 µM
[1]; [12]
  IC50: 0.738 µM
[2]; Homo sapiens, HEK-293T
  IC50: > 200 µM
[4]
  fraction unbound: 0.017
[3]
  Cli: 0.17 mL/min/g

## Nc1nc2[nH]c(-c3ccccc3)c(CCc3ccccc3)c2c(=O)[nH]1 [34i]
[3]
  Cli: 2.5 mL/min/g

## Nc1nc2[nH]c(-c3ccc(F)cc3)c(-c3cccc(Cl)c3)c2c(=O)[nH]1 [34l]
[3]
  Cli: <0.5 mL/min/g

## Nc1nc(N)c2c(-c3ccccc3)c(-c3ccccc3)[nH]c2n1 [35a, 5,6-Diphenyl-7H-pyrrolo[2,3-d]pyrimidine-2,4-diamine]
[1]; [8]
  IC50: 0.58 µM
[1]; [9]
  IC50: 2.25 µM
[1]; [10]
  IC50: 0.583 µM
[1]; [12]
  IC50: 2.25 µM
[2]; Homo sapiens, HEK-293T
  IC50: 62.9 µM
[2]
  IC50: 62.9 µM
[4]
  fraction unbound: 0.035
[5]; [11]
  half-life: ~1.67 h
[3]
  Cli: 5.26 mL/min/g

## Nc1nc(N)c2c(-c3ccccc3)c(-c3ccc(F)cc3)[nH]c2n1 [35b, 6-(4-Fluorophenyl)-5-phenyl-7H-pyrrolo[2,3-d]pyrimidine-2,4-diamine]
[1]; [8]
  IC50: 0.08 µM
[1]; [9]
  IC50: 0.32 µM
[1]; [10]
  IC50: 0.082 µM
[1]; [12]
  IC50: 0.321 µM
[2]; Homo sapiens, HEK-293T
  IC50: 49.2 µM
[2]
  IC50: 49.2 µM
[4]
  fraction unbound: 0.011
[6]
  reduction of parasitaemia: below detectable limits
[5]; [11]
  half-life: > 8.33 h
[5]; metabolic stability in microsomal assay, read-out: t1/2 in microsomal assay
  half-life: > 8 h
[3]
  Cli: 1.90 mL/min/g

## N#Cc1c[nH]c2nc(N)nc(N)c12 [compound 4, 2,4-diamino-7H-pyrrolo[2,3-d]pyrimidine-5-carbonitrile]
[1]; [7]
  IC50: 2440 µM

## Nc1nc(N2CCCC2)c2c(C#Cc3ccccc3)c[nH]c2n1 [compound 20, 5-(Phenylethynyl)-4-(1-pyrrolidinyl)-7H-pyrrolo[2,3-d]pyrimidin-2-amine]
[3]
  Cli: 5.6 mL/min/g

## Nc1nc2[nH]c(-c3ccc(CCCN4CCOCC4)cc3)c(-c3ccccc3)c2c(=O)[nH]1 [compound 38, 2-Amino-6-{4-[3-(4-morpholinyl)propyl]phenyl}-5-phenyl-3,7-dihydro-4H-pyrrolo[2,3-d]pyrimidin-4-one trifluoroacetate]
[1]; [8]
  IC50: 20.1 µM
[1]; [9]
  IC50: 38.1 µM

## N=C(N)c1ccc(/N=N/Nc2ccc(C(=N)N)cc2)cc1 [diminazene, reference compound]
[1]; [8]
  IC50: 0.007 µM
[1]; [9]
  IC50: 0.027 µM

## CN(Cc1cnc2nc(N)nc(N)c2n1)c1ccc(C(=O)N[C@@H](CCC(=O)O)C(=O)O)cc1 [methotrexate, reference compound]
[1]; [8]
  IC50: 0.011 µM
[1]; [9]
  IC50: 3.66 µM
